Where “and” joins values, the source holds several entries; their conditions need not be identical. Identical values can stand only once.
Key:
Format in all cases: biochemical, Erwinia chrysanthemi
[1] = test system: ELIC R117A; test: Asymmetric liposome stopped-flow Tl+ flux assay, mutant; conditions: 25 mol% outer leaflet POPG, 10 mM propylamine
Protocol: We next tested the effect of mutations that directly interact with the phospholipid in the ELIC5 CA structure (R117, T259), or are near this site and previously shown to interact with cardiolipin (S202, R318A, T259A and W206F) (Fig. 6a)[14]. The mutations were tested as for WT by examining the effect of 25 mol% outer leaflet POPG in paired (no exchange versus exchange) samples (Supplementary Fig. 15). […] Despite the mutations having various effects on ELIC agonist responses, comparison of no exchange and exchange samples enabled assessment of the effect of POPG.
The fluorescence sequential-mixing stopped-flow liposomal flux measurements were carried using an SX20 stopped-flow spectrofluorometer (Applied Photophysics) and Pro-Data SX software[13],[30]. […]
Using propylamine as the agonist, the assay and analysis was carried out as previously described[13],[30]. […] After a variable delay of 10 ms to 25 s, the sample was then mixed 1:1 with a quenching buffer (90 mM NaNO3, 50 mM TlNO3, 10 mM HEPES, pH 7), and ANTS fluorescence (ex. 360 nm, fluorescence above 420 nm) was recorded for 1 s. […] The time course of desensitization was also fit to a double exponential and a weighted time constant was calculated as was done for the patch-clamp data using Origin 2019b. […]
Acceptor liposomes were prepared as described in the Stopped-flow fluorescence recordings section until completion of the extrusion step. […]

[2] = molecular target: T1, ELIC3 (V261Y/G319F/I320F) (Dickeya chrysanthemi, UniProt P0C7B7, G318F/I319F/V260Y); test: Giant liposome excised patch-clamp recordings (2:1:1 POPC:POPE:POPG)
T1 construct: host or cells: OverExpress C43 (DE3) E. coli
T1 sequence (P0C7B7 whole entry V260Y/G318F/I319F): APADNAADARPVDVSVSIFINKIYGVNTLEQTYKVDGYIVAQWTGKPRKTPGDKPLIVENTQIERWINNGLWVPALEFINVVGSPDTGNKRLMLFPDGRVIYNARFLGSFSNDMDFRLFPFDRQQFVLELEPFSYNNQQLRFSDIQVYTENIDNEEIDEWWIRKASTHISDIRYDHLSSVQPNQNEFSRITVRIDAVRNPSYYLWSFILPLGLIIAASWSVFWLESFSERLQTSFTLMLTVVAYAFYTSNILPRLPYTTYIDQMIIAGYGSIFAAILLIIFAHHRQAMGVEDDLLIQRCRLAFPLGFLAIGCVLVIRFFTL
Protocol: (§1) Giant liposome formation and excised patch-clamp recordings of ELIC were performed as previously described[12],[13]. 0.5 mg of WT ELIC, ELIC3 or ELIC5 were reconstituted in 5 mg of 2:1:1 POPC:POPE:POPG liposomes, using DDM destabilization and biobeads. 10 mM MOPS pH 7 and 150 mM NaCl (MOPS buffer) was used throughout. Proteoliposomes were pelleted and resuspended in ~80 µl, and frozen in 10 µl aliquots. Giant liposomes were formed by dehydrating 10 µl of proteoliposomes on a glass coverslip in a vacuum desiccator for ~20 min followed by rehydration with 100 µl of MOPS buffer overnight at 4 °C and 2 hr at RT the following day. The giant liposomes were resuspended by pipetting and applied to a recording chamber. The liposomes were allowed to settle for 15 min, after which free liposomes and debris were removed by exchanging the bath solution. Bath and pipette solutions contained MOPS buffer and 0.5 mM BaCl2 (Sigma). […] Rapid application or washout of agonist were performed using a three-barreled flowpipe mounted to and controlled by a SF-77B fast perfusion system (Warner Instrument Corporation). […] Deactivation time courses were fit with a single exponential while the time course of desensitization was fit with a double exponential. Weighted time constants were calculated using Eq. 1:1 Weighted Tau=A1×τ1+(A2×τ2)/A1+A2 where A1 and A2 are the amplitudes of the first and second exponential components. The data were collected and analyzed using pClamp10.4 software.

[3] = molecular target: T2, ELIC5 (P254G/C300S/V261Y/G319F/I320F) (Dickeya chrysanthemi, UniProt P0C7B7, C299S/G318F/I319F/P253G/V260Y); test: as above
T2 construct: host or cells: OverExpress C43 (DE3) E. coli
T2 sequence (P0C7B7 whole entry P253G/V260Y/C299S/G318F/I319F): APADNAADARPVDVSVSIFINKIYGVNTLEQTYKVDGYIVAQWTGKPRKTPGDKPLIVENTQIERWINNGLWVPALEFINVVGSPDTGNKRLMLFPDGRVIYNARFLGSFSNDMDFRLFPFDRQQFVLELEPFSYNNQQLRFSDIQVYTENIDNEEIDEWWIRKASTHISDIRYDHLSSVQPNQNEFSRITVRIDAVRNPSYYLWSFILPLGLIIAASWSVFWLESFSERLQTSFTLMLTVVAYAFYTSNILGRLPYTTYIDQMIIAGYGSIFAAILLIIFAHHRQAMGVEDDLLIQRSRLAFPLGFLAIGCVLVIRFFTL
Protocol: as §1

[4] = test system: WT ELIC; test: as above
Protocol: as §1

[5] = 2:1:1 giant liposomes, 0.5 mM BaCl2, Hill n set to 2, read-out: EC50 of peak current dose response

Question: `CCCCCCCC/C=C\CCCCCCCC(=O)OC(COC(=O)CCCCCCCCCCCCCCC)COP(=O)(O)OCC(O)CO` (stereo not drawn) [POPG, 1-palmitoyl-2-oleoyl-phosphatidylglycerol] was tested. Which “POPG modulation (peak response and desensitization)” value [1] did it give?
Answer: Its value is “both effects of POPG (increased peak response and decreased desensitization) are abolished”.

Question: Which “Peak response (normalized)” value ([2]; 0.3 mM cysteamine) does the source give for `NCCS` [cysteamine] here?
Answer: The value was 0.02035.

Question: And the “Peak response (normalized)” value ([2]; 1 mM cysteamine)?
Answer: The value was 0.4462.

Question: And the “Peak response (normalized)” value ([2]; 3 mM cysteamine)?
Answer: The value was 0.7955.

Question: What about the “Relative current at 60s, Average” value ([2]; 10 mM Cys) of the same compound?
Answer: Its value is 0.1185.

Question: And the “Time constant of deactivation, Deactivation Tau” value (from here on “Time constant of deactivation”) ([2]; 10 mM Cys)?
Answer: Its value is 1.081 s.

Question: And the “Time constant of desensitizaton, Weighted Tau” value (“Time constant … Weighted Tau” below) ([2]; 10 mM Cys)?
Answer: The value was 12.8369 s.

Question: And the “Peak response (normalized)” value ([2]; 10 mM cysteamine)?
Answer: The value was 1.022.

Question: What about the “Relative current at 60s, Average” value ([2]; 30 mM Cys) of the same compound?
Answer: Its value is 0.08245.

Question: And the “Time constant of deactivation” value ([2]; 30 mM Cys)?
Answer: The value was 1.658 s.

Question: And the “Time constant … Weighted Tau” value ([2]; 30 mM Cys)?
Answer: Its value is 8.1999 s.

Question: What about the “Peak response (normalized)” value ([2]; 30 mM cysteamine) of the same compound?
Answer: Its value is 1.

Question: What about the EC50 [2, 5] of the same compound?
Answer: Its EC50 is 1.2 ± 0.2 mM.

Question: What about the “Relative current at 60s” value ([3]; 10 mM Cys) of the same compound?
Answer: The value was “No evidence of desensitization”.

Question: What about the “Time constant of deactivation” value ([3]; 10 mM Cys) of the same compound?
Answer: Its value is 195.719 s.

Question: And the “Time constant of desensitizaton” value ([3]; 10 mM Cys)?
Answer: The value was “No evidence of desensitization”.

Question: And the “deactivation rate, fold slower than WT” value ([3]; after removal of 10 mM cysteamine)?
Answer: Its value is ~ 1000 ×.

Question: And the desensitization ([3]; in the presence of 10 mM cysteamine)?
Answer: The desensitization was “no evidence of desensitization”.

Question: What about the “Peak response (normalized)” value ([4]; 0.3 mM cysteamine) of the same compound?
Answer: The value was 0.003114.

Question: What about the “Peak response (normalized)” value ([4]; 1 mM cysteamine) of the same compound?
Answer: The value was 0.01807.

Question: And the “Peak response (normalized)” value ([4]; 3 mM cysteamine)?
Answer: Its value is 0.2085.

Question: And the “Relative current at 60s, Average” value ([4]; 10 mM Cys)?
Answer: The value was 0.05101.

Question: And the “Time constant of deactivation” value ([4]; 10 mM Cys)?
Answer: The value was 0.1636 s.

Question: And the “Time constant … Weighted Tau” value ([4]; 10 mM Cys)?
Answer: The value was 4.764 s.

Question: And the “Peak response (normalized)” value ([4]; 10 mM cysteamine)?
Answer: The value was 0.7416.

Question: And the “Relative current at 60s, Average” value ([4]; 30 mM Cys)?
Answer: The value was 0.03561.

Question: And the “Time constant of deactivation” value ([4]; 30 mM Cys)?
Answer: Its value is 0.4008 s.

Question: And the “Time constant … Weighted Tau” value ([4]; 30 mM Cys)?
Answer: Its value is 2.506 s.

Question: And the “Peak response (normalized)” value ([4]; 30 mM cysteamine)?
Answer: The value was 1.

Question: What about the EC50 [4, 5] of the same compound?
Answer: The EC50 was 5.2 mM and 4 to 5 mM.
